This note sets out measurements from patent publication US20250002954A1, “Novel Compound, Use Thereof, and Method for Producing Same, and Compound-Containing Composition, Method for Producing 4-Trehalosamine, and Microorganism” (Microbial Chemistry Research Foundation, priority 2021, published 2025).

This series in a line: Starch aging inhibiting effect, enzyme assay 1 and 2 (β-amylase degradation of corn starch gel). The method, then:
After the individual test samples were mixed into corn starch gel and left to stand at low temperature for 96 hours, the aging level was evaluated via a degradation experiment using β-amylase. The method described below is an evaluation scheme that is an improvement over the BAP method (K. Kainuma, et al, Journal of the Japanese Society of Starch Science 1981, 28, 235.) and only uses β-amylase.
The 4-trehalosamine (4TA) obtained in production example 10, and trehalose (TRH), sucrose (SCR), and glycerol (hereinafter, sometimes referred to as “GOL”) were each dissolved in water to a final concentration of 10% (w/w), thus preparing aqueous solutions. […]
Quantification (absorbance measurement) of enzyme reaction and sugar were performed for the 24-hour, the 48-hour, or the 96-hour sample in a similar manner to the quantification (absorbance measurement) of enzyme reaction and sugar for the 0-hour sample except that the measurement sample was changed to the 24-hour sample, the 48-hour sample, or the 96-hour sample in the quantification (absorbance measurement) of enzyme reaction and sugar for the 0-hour sample. […]

On to `N[C@H]1[C@H](O)[C@@H](O)[C@@H](O[C@H]2O[C@H](CO)[C@@H](O)[C@H](O)[C@H]2O)O[C@@H]1CO` [4-trehalosamine], for which the “β-amylase degradation rate (starch aging inhibiting effect)” value (final concentration 5% to 15%, 96 hours) was “maintained β-amylase degradation rate at 96 hours significantly high compared to the other gels”. The “rate of degradation by β-amylase (starch aging inhibiting effect)” value (test sample final concentration 10% (w/w), 6° C., 24 to 96 hours) was “significantly high rate of degradation by β-amylase at and after 24 hours compared to the other gels”.
